In the supplement of paper PMC10307832:

Key:
Assay in all cases: relative viability (nuclei count vs DMSO), 5 days (fraction); higher = more cells survive
[1] = system: A-427
Method in brief: (§1)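 Lung cancer cell lines in 1536-well plates were dosed by pin tool the day after seeding, either with one drug alone or with a fixed anchor-drug dose plus five library-drug doses (not always all listed) in √10 steps. After 5 days, cells were fixed and their nuclei stained in one step (final 0.05% Triton X-100, 1% formaldehyde, 1 ug/ml Hoechst), then counted on 4× images. Relative viability is the nuclei count in treated wells divided by that in vehicle wells. Values are medians of duplicate plates.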

[2] = system: CAL-12T
Method in brief: as §1

[3] = system: COR-L 105
Method in brief: as §1

[4] = system: COR-L23
Method in brief: as §1

[5] = system: EPLC-272H
Method in brief: as §1

[6] = system: HOP-62
Method in brief: as §1

[7] = system: LCLC-103H
Method in brief: as §1

[8] = system: LXF-289
Method in brief: as §1

[9] = system: NCI-H1395
Method in brief: as §1

[10] = system: NCI-H1651
Method in brief: as §1

[11] = system: NCI-H1975
Method in brief: as §1

[12] = system: NCI-H1993
Method in brief: as §1

[13] = system: NCI-H2023
Method in brief: as §1

[14] = system: NCI-H2085
Method in brief: as §1

[15] = system: NCI-H2087
Method in brief: as §1

[16] = system: NCI-H2170
Method in brief: as §1

[17] = system: NCI-H3122
Method in brief: as §1

[18] = system: NCI-H596
Method in brief: as §1

[19] = system: NCI-H647
Method in brief: as §1

[20] = system: NCI-H650
Method in brief: as §1

[21] = system: PC-14
Method in brief: as §1

[22] = system: RERF-LC-KJ
Method in brief: as §1

[23] = system: SK-MES-1
Method in brief: as §1

Compound `O=c1[nH]c2ccccc2n1C1CCN(CCCC(c2ccc(F)cc2)c2ccc(F)cc2)CC1` [Pimozide] + COc1cccc2cc(-c3nc([C@H]4CC[C@H](C(=O)O)CC4)n4ncnc(N)c34)[nH]c12 [OSI-027] (partner 0.5 µM) has a relative viability ([1]; first compound 0.08 µM) of 0.433, a relative viability ([1]; first compound 0.253 µM) of 0.468 and a relative viability ([1]; first compound 0.8 µM) of 0.414. The relative viability ([1]; first compound 2.53 µM) was 0.419, the relative viability ([1]; first compound 8 µM) was 0.406 and the relative viability ([2]; first compound 0.08 µM) was 0.756. The relative viability ([2]; first compound 0.253 µM) was 0.706, the relative viability ([2]; first compound 0.8 µM) was 0.673 and the relative viability ([2]; first compound 2.53 µM) was 0.41. The relative viability ([2]; first compound 8 µM) was 0.561, the relative viability ([3]; first compound 0.253 µM) was 0.778 and the relative viability ([3]; first compound 0.8 µM) was 0.617. For the same compound, the relative viability ([3]; first compound 2.53 µM) was 0.64, the relative viability ([3]; first compound 8 µM) was 0.58 and the relative viability ([4]; first compound 0.08 µM) was 0.757. It also gave a relative viability ([4]; first compound 0.253 µM) of 0.75, a relative viability ([4]; first compound 0.8 µM) of 0.694 and a relative viability ([4]; first compound 2.53 µM) of 0.731. For the same compound, the relative viability ([4]; first compound 8 µM) was 0.639, the relative viability ([5]; first compound 0.08 µM) was 0.276 and the relative viability ([5]; first compound 0.253 µM) was 0.302. The relative viability ([5]; first compound 0.8 µM) was 0.25, the relative viability ([5]; first compound 2.53 µM) was 0.176 and the relative viability ([5]; first compound 8 µM) was 0.234. The relative viability ([6]; first compound 0.08 µM) was 0.859, the relative viability ([6]; first compound 0.253 µM) was 0.806 and the relative viability ([6]; first compound 2.53 µM) was 0.759. The relative viability ([6]; first compound 8 µM) was 0.773, the relative viability ([7]; first compound 0.08 µM) was 0.482 and the relative viability ([7]; first compound 0.253 µM) was 0.452. For the same compound, the relative viability ([7]; first compound 0.8 µM) was 0.384, the relative viability ([7]; first compound 2.53 µM) was 0.425 and the relative viability ([7]; first compound 8 µM) was 0.423. For the same compound, the relative viability ([8]; first compound 0.08 µM) was 0.693, the relative viability ([8]; first compound 0.253 µM) was 0.786 and the relative viability ([8]; first compound 0.8 µM) was 0.773. The relative viability ([8]; first compound 2.53 µM) was 0.811, the relative viability ([8]; first compound 8 µM) was 0.716 and the relative viability ([9]; first compound 0.08 µM) was 0.642. For the same compound, the relative viability ([9]; first compound 0.253 µM) was 0.611, the relative viability ([9]; first compound 0.8 µM) was 0.565 and the relative viability ([9]; first compound 2.53 µM) was 0.629. For the same compound, the relative viability ([9]; first compound 8 µM) was 0.557, the relative viability ([10]; first compound 0.08 µM) was 0.657 and the relative viability ([10]; first compound 0.253 µM) was 0.7. The relative viability ([10]; first compound 0.8 µM) was 0.633, the relative viability ([10]; first compound 2.53 µM) was 0.757 and the relative viability ([10]; first compound 8 µM) was 0.596. It also gave a relative viability ([11]; first compound 0.08 µM) of 0.838, a relative viability ([11]; first compound 0.253 µM) of 0.695 and a relative viability ([11]; first compound 0.8 µM) of 0.753. It also gave a relative viability ([11]; first compound 2.53 µM) of 0.651, a relative viability ([11]; first compound 8 µM) of 0.561 and a relative viability ([12]; first compound 0.08 µM) of 0.562. For the same compound, the relative viability ([12]; first compound 0.253 µM) was 0.572, the relative viability ([12]; first compound 0.8 µM) was 0.539 and the relative viability ([12]; first compound 2.53 µM) was 0.581. The relative viability ([12]; first compound 8 µM) was 0.479, the relative viability ([13]; first compound 0.08 µM) was 0.418 and the relative viability ([13]; first compound 0.253 µM) was 0.465. The relative viability ([13]; first compound 0.8 µM) was 0.413, the relative viability ([13]; first compound 2.53 µM) was 0.307 and the relative viability ([13]; first compound 8 µM) was 0.231. The relative viability ([14]; first compound 0.08 µM) was 0.59, the relative viability ([14]; first compound 0.253 µM) was 0.736 and the relative viability ([14]; first compound 0.8 µM) was 0.701. It also gave a relative viability ([14]; first compound 2.53 µM) of 0.709, a relative viability ([14]; first compound 8 µM) of 0.61 and a relative viability ([15]; first compound 0.08 µM) of 0.765. The relative viability ([15]; first compound 0.253 µM) was 0.55, the relative viability ([15]; first compound 2.53 µM) was 0.427 and the relative viability ([15]; first compound 8 µM) was 0.377. It also gave a relative viability ([16]; first compound 0.08 µM) of 0.617, a relative viability ([16]; first compound 0.253 µM) of 0.628 and a relative viability ([16]; first compound 0.8 µM) of 0.681. It also gave a relative viability ([16]; first compound 2.53 µM) of 0.692, a relative viability ([16]; first compound 8 µM) of 0.551 and a relative viability ([17]; first compound 0.08 µM) of 1.01. It also gave a relative viability ([17]; first compound 0.253 µM) of 0.873, a relative viability ([17]; first compound 0.8 µM) of 0.826 and a relative viability ([17]; first compound 2.53 µM) of 0.926. For the same compound, the relative viability ([17]; first compound 8 µM) was 0.822, the relative viability ([18]; first compound 0.08 µM) was 0.627 and the relative viability ([18]; first compound 0.253 µM) was 0.851. For the same compound, the relative viability ([18]; first compound 0.8 µM) was 0.642, the relative viability ([18]; first compound 2.53 µM) was 0.627 and the relative viability ([18]; first compound 8 µM) was 0.481. For the same compound, the relative viability ([19]; first compound 0.08 µM) was 0.656, the relative viability ([19]; first compound 0.253 µM) was 0.71 and the relative viability ([19]; first compound 0.8 µM) was 0.677. For the same compound, the relative viability ([19]; first compound 2.53 µM) was 0.611, the relative viability ([19]; first compound 8 µM) was 0.404 and the relative viability ([20]; first compound 0.08 µM) was 0.536. The relative viability ([20]; first compound 0.253 µM) was 0.555, the relative viability ([20]; first compound 0.8 µM) was 0.405 and the relative viability ([20]; first compound 2.53 µM) was 0.537. The relative viability ([20]; first compound 8 µM) was 0.606, the relative viability ([21]; first compound 0.08 µM) was 0.182 and the relative viability ([21]; first compound 0.253 µM) was 0.743. For the same compound, the relative viability ([21]; first compound 0.8 µM) was 0.764, the relative viability ([21]; first compound 2.53 µM) was 0.624 and the relative viability ([21]; first compound 8 µM) was 0.621. For the same compound, the relative viability ([22]; first compound 0.08 µM) was 0.509, the relative viability ([22]; first compound 0.253 µM) was 0.513 and the relative viability ([22]; first compound 0.8 µM) was 0.52. The relative viability ([22]; first compound 2.53 µM) was 0.427, the relative viability ([22]; first compound 8 µM) was 0.448 and the relative viability ([23]; first compound 0.08 µM) was 0.61. The relative viability ([23]; first compound 0.253 µM) was 0.572, the relative viability ([23]; first compound 0.8 µM) was 0.546 and the relative viability ([23]; first compound 2.53 µM) was 0.586. The relative viability ([23]; first compound 8 µM) was 0.463.
